Data as given in patent publication US20140303322A1, “ANTIMICROBIAL AND BACTERIOSTATIC-MODIFIED POLYMERS FOR CELLULOSE FIBRES” (priority 2012, published 2014).
Marks after values point to notes of the source that are not given here.

Legend:
[1] = Water solubility of triclosan and butylparaben (UV spectrophotometer); assay type: physicochemical; conditions: FIGS. 13 and 14; complex with CPβCD
Text: The triclosan/CPβCD or butylparaben/CPβCD complex can be prepared by adopting the procedures described by Arias et al. (1997)^7 and Mura et al. (2002)^8. […] The solubility of triclosan or butylparaben can be determined by a UV spectrophotometer at wavelength of 282 nm and 256 nm, respectively.

[2] = system: E. coli ATCC 11229; assay: Shaking flask method, antibiotics/CPβCD complexes on cellulose fibres; assay type: cell-based, Escherichia coli; conditions: CPβCD complex
[3] = concentration 0.03 % wt, contacting time 1 hour
[4] = concentration 0.06 % wt, contacting time 1 hour
[5] = concentration 0.125 % wt, contacting time 1 hour
[6] = concentration 0.25 % wt, contacting time 1 hour
[7] = concentration 0.5 % wt, contacting time 1 hour
[8] = concentration 1 % wt, contacting time 1 hour
[9] = contacting time 0.5 min, antibiotic 0.5% wt based on cellulose fibres
[10] = contacting time 1 min, antibiotic 0.5% wt based on cellulose fibres
[11] = contacting time 3 min, antibiotic 0.5% wt based on cellulose fibres
[12] = contacting time 10 min, antibiotic 0.5% wt based on cellulose fibres
[13] = contacting time 30 min, antibiotic 0.5% wt based on cellulose fibres
[14] = contacting time 60 min, antibiotic 0.5% wt based on cellulose fibres

## Oc1cc(Cl)ccc1Oc1ccc(Cl)cc1Cl [Triclosan]
[1]
  water solubility as a function of CPβCD content: linear increased with the CPβCD content
[2]; [3]
  Growth inhibition (%): 23.2%
[2]; [4]
  Growth inhibition (%): 50.2%
[2]; [5]
  Growth inhibition (%): 68.1%
[2]; [6]
  Growth inhibition (%): 87.1%
[2]; [7]
  Growth inhibition (%): 99.7%
[2]; [8]
  Growth inhibition (%): 100%
[2]; [9]
  Growth inhibition (%): 24.6%
[2]; [10]
  Growth inhibition (%): 37.7%
[2]; [11]
  Growth inhibition (%): 61.0%
[2]; [12]
  Growth inhibition (%): 95.8%
[2]; [13]
  Growth inhibition (%): 99.6%
[2]; [14]
  Growth inhibition (%): 100%

## CCCCOC(=O)c1ccc(O)cc1 [Butylparaben, butylparaben]
[1]
  water solubility as a function of CPβCD content: linear increased with the CPβCD content
[2]; [3]
  Growth inhibition (%): 4.54%
[2]; [4]
  Growth inhibition (%): 9.09%
[2]; [5]
  Growth inhibition (%): 54.6%
[2]; [6]
  Growth inhibition (%): 81.8%
[2]; [7]
  Growth inhibition (%): 99.9%
[2]; [8]
  Growth inhibition (%): 100%
[2]; [9]
  Growth inhibition (%): 50.0%
[2]; [10]
  Growth inhibition (%): 61.9%
[2]; [11]
  Growth inhibition (%): 95.8%
[2]; [12]
  Growth inhibition (%): 100**** %
[2]; [13]
  Growth inhibition (%): 100%
[2]; [14]
  Growth inhibition (%): 100%
